Tests used:
[1] = UV-visible absorption spectrum; type: physicochemical; settings: 1 μM solution, pH 7.4 0.1 M phosphate buffer, 0.1% DMF
Experimental: Compound 10 obtained in Example 4 was dissolved in pH 7.4 0.1 M phosphate buffer containing 0.1% DMF as cosolvent to form a 10 μM solution.
Compound 12 obtained in Example 5 was dissolved in pH 7.4 0.1 M phosphate buffer containing 0.1% DMF as cosolvent to form a 1 μM solution.
Compound 14 obtained in Example 6 was dissolved in pH 7.4 0.1 M phosphate buffer containing 0.1% DMF as cosolvent to form a 1 μM solution.
Compound 30 obtained in Example 7 was dissolved in pH 7.4 0.1 M phosphate buffer containing 0.1% DMF as cosolvent to form a 10 μM solution. The absorption spectrum of the 10 μM solution of Compound 30 was measured.

[2] = Emission spectra of the probe itself; type: physicochemical; settings: 1 μM, 0.1 M phosphate buffer pH 7.4, excitation 515 nm, Hitachi F2500, 700 V
Experimental: (§1) Compound 10 obtained in Example 4 was dissolved in DMF to a concentration of 10 mM, and then the solution was diluted to 10 μM by 0.1 M phosphate buffer (pH 7.4). The fluorescence spectrum of the 10 μM solution of Compound 10 was measured using a Hitachi F2500 fluorescence spectrometer and the photomultiplier voltage was 700 V. The slit width was 2.5 nm for both excitation and emission. The measurement was carried out at an excitation wavelength of 520 nm. The results shown in FIG. 1 indicate that Compound 10 itself is non-fluorescent.
(§2) Compound 12 obtained in Example 5 was dissolved in DMF to a concentration of 1 mM, and then the solution was diluted to 1 μM by 0.1 M phosphate buffer (pH 7.4). The fluorescence spectrum of the 1 μM solution of Compound 12 was measured using a Hitachi F2500 fluorescence spectrometer and the photomultiplier voltage was 700 V. The slit width was 2.5 nm for both excitation and emission. The measurement was carried out at an excitation wavelength of 515 nm. The results shown in FIG. 4 indicate that Compound 12 itself is non-fluorescent.
as §2, with “Compound 14” for “Compound 12”, “Example 6” for “Example 5”, “FIG. 6” for “FIG. 4”
as §1, with “Compound 30” for “Compound 10”, “Example 7” for “Example 4”, “Hitachi F7000” for “Hitachi F2500”, “was 900” for “was 700”, “nm.” for “nm. The results shown in FIG. 1 indicate that Compound 10 itself is non-fluorescent.”

[3] = Detection of hypochlorite: fluorescence spectra after addition of NaOCl; settings: 1 μM probe
Experimental: Compound 14 obtained in Example 6 was dissolved in DMF to a concentration of 1 mM, and then the solution was diluted to 1 μM by 0.1 M potassium phosphate buffer (pH 7.4). Commercial bleach was the source of NaOCl. The concentration of NaOCl was determined by titration with sodium thiosulfate solution which was standardized by the titration with KlO3. Then NaOCl was added to provide final concentrations of 0, 2, 3, 4, 5, 6, 7, and 8 μM. Fluorescence spectra of the solutions were measured after 5 minutes under the same conditions as mentioned above.

[4] = Comparison of specificity with different ROS and RNS; settings: 1 μM probe in 0.1 M potassium phosphate buffer
Experimental: The reactivity of Compound 10 was compared toward different reactive oxygen species (ROS) and reactive nitrogen species (RNS), including OCl^−, H2O2, ^1O2, NO, O2^•−, ^•OH, ONOO^− and alkylperoxyl radical (ROO^•). Different reactive oxygen species and reactive nitrogen species were added independently to 5 mL of the solution of Compound 10 (10 μM in 0.1 M potassium phosphate buffer). The changes of fluorescence intensity before and after the treatment were measured. The reactive oxygen species and reactive nitrogen species were prepared as follows. • a. H2O2 (final 100 μM) was added and then stirred for 1 hour at 25° C. • b. (3-(1,4-Dihydro-1,4-epidioxy-1-naphthyl)propionic acid) (final 100 μM) was added and then stirred at 25° C. for 1 hour. • c. 2,2′-Azobis(2-amidinopropane)dihydrochloride (final 100 μM) was added and then stirred at 25° C. for 1 hour. • d. SNP (Sodium Nitroferricyanide (III) Dihydrate) (final 100 μM) was added and then stirred for 1 hour at 25° C. • e. O2^•− was generated by xanthine and xanthine oxidase. Xanthine oxidase was added firstly. After xanthine oxidase was dissolved, xanthine (final 100 μM) was added and the mixtures were stirred at 25° C. for 1 hour. • f. Ferrous chloride (final 10 μM) was added in the presence of 10 equivalences of H2O2 (100 μM). • g. ONOO^− (final 10 μM) was added at 25° C. • h. NaOCl (final 10 μM) was added at 25° C. Commercial bleach was the source of NaOCl.
The reactivity of Compound 12 was compared toward different reactive oxygen species (ROS) and reactive nitrogen species (RNS), including OCl^−, H2O2, ^1O2, NO, O2^•−, ^•OH, ONOO^− and alkylperoxyl radical (ROO^•). Different reactive oxygen species and reactive nitrogen species were added independently to 5 mL of the solution of Compound 12 (1 μM in 0.1 M potassium phosphate buffer). The changes of fluorescence intensity before and after the treatment were measured. The reactive oxygen species and reactive nitrogen species were prepared as follows: • i. H2O2 (final 100 μM) was added and then stirred for 1 hour at 25° C. • j. (3-(1,4-Dihydro-1,4-epidioxy-1-naphthyl)propionic acid) (final 100 μM) was added and then stirred at 25° C. for 1 hour. • k. 2,2′-Azobis(2-amidinopropane)dihydrochloride (final 100 μM) was added and then stirred at 25° C. for 1 hour. • l. SNP (Sodium Nitroferricyanide (III) Dihydrate) (final 100 μM) was added and then stirred for 1 hour at 25° C. • m. O2^•− was generated by xanthine and xanthine oxidase. Xanthine oxidase was added firstly. After xanthine oxidase was dissolved, xanthine (final 100 μM) was added and the mixtures were stirred at 25° C. for 1 hour. • n. Ferrous chloride (final 10 μM) was added in the presence of 10 equivalences of H2O2 (100 μM). • o. ONOO^− (final 10 μM) was added at 25° C. • p. NaOCl (final 10 μM) was added at 25° C. Commercial bleach was the source of NaOCl.
The reactivity of Compound 14 was compared toward different reactive oxygen species (ROS) and reactive nitrogen species (RNS), including OCl^−, H2O2, ^1O2, NO, O2^•−, ^•OH, ONOO^− and alkylperoxyl radical (ROO^•). Different reactive oxygen species and reactive nitrogen species were added independently to 5 mL of the corresponding solution of Compound 14 (1 μM in 0.1 M potassium phosphate buffer). The changes in fluorescence intensity before and after the treatment were measured. The reactive oxygen species and reactive nitrogen species were prepared as follows: • a. H2O2 (final 100 μM) was added and then stirred for 1 hour at 25° C. • b. (3-(1,4-Dihydro-1,4-epidioxy-1-naphthyl)propionic acid) (final 100 μM) was added and then stirred at 25° C. for 1 hour. • c. 2,2′-Azobis(2-amidinopropane)dihydrochloride (final 100 μM) was added and then stirred at 25° C. for 1 hour. • d. SNP (Sodium Nitroferricyanide (III) Dihydrate) (final 100 μM) was added and then stirred for 1 hour at 25° C. • e. O2^•− was generated by xanthine and xanthine oxidase. Xanthine oxidase was added firstly. […]

absorption maximum [1]: about 515 nm | fluorescence of the probe itself [2]: non-fluorescent
SMILES: CN(c1ccc(N)cc1)c1ccc2c(c1)Oc1cc(O)ccc1C21OC(=O)c2ccccc21 (stereo not drawn) [Compound 14]
fluorescence intensity at 535 nm with increasing concentration of hypochlorite ([3]; 0.1 M potassium phosphate buffer pH 7.4): increases linearly | fluorescence intensity after the addition of hypochlorite ([3]; NaOCl 0-8 μM, 0.1 M potassium phosphate buffer pH 7.4, after 5 minutes, excitation 515 nm): increase significantly | reactivity among ROS and RNS in an abiotic system [4]: much higher reactivity towards hypochlorite | fluorescence enhancement by hypochlorite compared with any other ROS and RNS ([4]; 25° C.): much stronger fluorescence enhancement

Reference: US8114904B2, “Luminescence quenchers and fluorogenic probes for detection of reactive species” (Versitech Limited & Morningside Ventures Limited, priority 2008, dated 2012)
